Results published in PubChem BioAssay (NCI).
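Tested at 5 concentrations; 48 h exposure; 96-well plates; endpoints linearly interpolated, else capped at highest concentration. Definition used: TGI = concentration required for complete inhibition of growth.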

Tests used:
Assay in all cases: NCI tumour cell line growth inhibition, 48 h
[1] = system: XF 498 CNS
[2] = system: DLD-1 colon
[3] = system: KM20L2 colon
[4] = system: DMS 114 small cell lung
[5] = system: HCT-15 colon
[6] = system: SNB-78 CNS
[7] = system: M19-MEL melanoma
[8] = system: UACC-257 melanoma
[9] = system: SN12C renal
[10] = system: LXFL 529 NSCLC
[11] = system: HOP-18 NSCLC
[12] = system: DMS 273 small cell lung
[13] = system: RXF-631 renal

Which results are given for `Cc1cc(NC(=O)NC(=O)c2ccccc2N)ccc1Oc1ncc(Br)cn1`?
TGI [1]: 67.6 µM; TGI [2]: > 47.9 µM; TGI [3]: 0.442 µM; TGI [4]: 0.0209 µM; TGI [5]: 8.31 µM; TGI [6]: > 100 µM; TGI [7]: > 100 µM; TGI [8]: 54.2 µM; TGI [9]: > 46.4 µM; TGI [10]: > 57.2 µM; TGI [11]: > 78 µM

With `COc1ccc(N(C)Sc2ccccc2)cc1` as the compound, how does the TGI [1] read?
Its TGI is 96.6 µM.

And the TGI [2]?
Its TGI is > 100 µM.

What about the TGI [3] of the same compound?
The TGI was > 100 µM.

And the TGI [4]?
The TGI was > 100 µM.

What about the TGI [5] of the same compound?
The TGI was > 100 µM.

What about the TGI [12] of the same compound?
Its TGI is > 100 µM.

What about the TGI [6] of the same compound?
Its TGI is > 100 µM.

What about the TGI [7] of the same compound?
Its TGI is > 100 µM.

And the TGI [8]?
The TGI was > 100 µM.

And the TGI [9]?
Its TGI is 75.3 µM.

And the TGI [10]?
The TGI was > 100 µM.

What about the TGI [11] of the same compound?
The TGI was > 100 µM.

`Nc1ccc(C(=O)NN2C(=O)C(Cl)C2c2cc(Br)ccc2O)cc1` (configuration not stated) was tested. Which TGI [1] did it give?
The TGI was > 100 µM.

And the TGI [2]?
The TGI was > 100 µM.

And the TGI [3]?
Its TGI is > 100 µM.

And the TGI [4]?
Its TGI is > 100 µM.

And the TGI [5]?
The TGI was > 100 µM.

What about the TGI [12] of the same compound?
The TGI was > 100 µM.

What about the TGI [6] of the same compound?
Its TGI is > 100 µM.

What about the TGI [7] of the same compound?
The TGI was > 100 µM.

What about the TGI [8] of the same compound?
Its TGI is > 100 µM.

What about the TGI [9] of the same compound?
Its TGI is > 100 µM.

What about the TGI [10] of the same compound?
The TGI was > 100 µM.

How did the TGI [1] turn out when `O=C(O)C12C3C4C1C1C2C3C1(Br)C41OCCO1` (configuration not stated) was run?
The TGI was > 100 µM.

And the TGI [2]?
Its TGI is > 100 µM.

And the TGI [3]?
Its TGI is > 100 µM.

And the TGI [4]?
Its TGI is > 100 µM.

And the TGI [12]?
Its TGI is > 100 µM.

What about the TGI [6] of the same compound?
The TGI was > 100 µM.

What about the TGI [7] of the same compound?
The TGI was > 100 µM.

And the TGI [8]?
The TGI was > 100 µM.

What about the TGI [10] of the same compound?
Its TGI is > 100 µM.

And the TGI [11]?
Its TGI is > 100 µM.

`COc1cc(Cn2c(=S)ss/c2=N\C(=S)N(C)C)cc(OC)c1OC` was tested. Which TGI [2] did it give?
The TGI was > 100 µM.

And the TGI [3]?
Its TGI is > 100 µM.

What about the TGI [4] of the same compound?
Its TGI is 12.8 µM.

What about the TGI [5] of the same compound?
The TGI was > 70.5 µM.

What about the TGI [12] of the same compound?
Its TGI is > 100 µM.

What about the TGI [6] of the same compound?
The TGI was > 100 µM.

And the TGI [13]?
The TGI was > 100 µM.

And the TGI [7]?
Its TGI is > 66.2 µM.

And the TGI [8]?
Its TGI is > 100 µM.

What about the TGI [9] of the same compound?
Its TGI is > 100 µM.

And the TGI [10]?
The TGI was > 100 µM.

And the TGI [11]?
The TGI was > 100 µM.

What does the source list for `CCOC(=O)c1cc(C2CCN(CC(C)CC)C2=S)c(-c2cc(C)no2)[nH]1` (configuration not stated)?
TGI [5]: > 100 µM; TGI [8]: > 100 µM; TGI [9]: > 100 µM

`COP(=O)(OC)C(=NCc1ccccc1)NNc1ccc([N+](=O)[O-])cc1` was tested. Which TGI [2] did it give?
The TGI was > 100 µM.

What about the TGI [3] of the same compound?
Its TGI is > 100 µM.

What about the TGI [4] of the same compound?
Its TGI is 76 µM.

What about the TGI [5] of the same compound?
The TGI was > 100 µM.

What about the TGI [12] of the same compound?
Its TGI is > 100 µM.

And the TGI [7]?
The TGI was > 100 µM.

And the TGI [8]?
The TGI was 51.1 µM.

And the TGI [10]?
The TGI was > 100 µM.

What does the source list for `C=C(C(=O)O)C1CCC(CC/C=C(\C)CC/C=C(\C)CCC=C(C)C)CO1` (configuration not stated)?
TGI [5]: 31.9 µM; TGI [8]: 52.9 µM; TGI [9]: 34.3 µM

Which TGI [2] does the source give for `O/N=C/c1cc2c(cc1Br)OCO2` here?
The TGI was > 100 µM.

What about the TGI [3] of the same compound?
The TGI was > 100 µM.

What about the TGI [5] of the same compound?
Its TGI is > 100 µM.

And the TGI [12]?
Its TGI is > 100 µM.

What about the TGI [6] of the same compound?
The TGI was > 100 µM.

What about the TGI [13] of the same compound?
Its TGI is > 100 µM.

And the TGI [7]?
Its TGI is > 100 µM.

What about the TGI [8] of the same compound?
The TGI was > 100 µM.

And the TGI [9]?
Its TGI is > 100 µM.

What about the TGI [10] of the same compound?
Its TGI is > 100 µM.

What about the TGI [11] of the same compound?
Its TGI is > 100 µM.

What does the source list for `C=CN1C(=O)OC[C@@H]1c1ccccc1`?
TGI [1]: > 100 µM; TGI [2]: > 100 µM; TGI [3]: > 100 µM; TGI [4]: > 100 µM; TGI [5]: > 100 µM; TGI [12]: 50.7 µM; TGI [6]: > 100 µM; TGI [13]: > 100 µM; TGI [7]: > 100 µM; TGI [8]: > 100 µM; TGI [9]: > 100 µM; TGI [10]: > 100 µM; TGI [11]: > 100 µM

Which TGI [5] does the source give for `CC(C)C1OC2(C)OC(=N)C1(C#N)C(C#N)(C#N)C2C` (configuration not stated) here?
The TGI was 25.3 µM.

What about the TGI [8] of the same compound?
Its TGI is > 100 µM.

And the TGI [9]?
The TGI was 26.8 µM.
